Results published in patent US10011573B2, “Human androgen receptor DNA-binding domain (DBD) compounds as therapeutics and methods for their use” (The University of British Columbia, priority 2014, dated 2018).

How the values were obtained:
PC3 cells = assay: Cell viability (MTS) assay, PC3; format: cell-based, human; conditions: 0.1 nM R1881
Description: 1. Cell Culture: LNCaP and PC3 human prostate cancer cells were obtained from American Type Culture Collection (ATCC, Manassas, Va.) and grown in RPMI 1640 medium supplemented with 5% fetal bovine serum (FBS) (Invitrogen). […]. All cells were maintained at 37° C. in 5% CO2.
7. Cell viability assay: The PC3, LNCaP, and MDV3100-resistant cells were plated at 3,000 cells per well in RPMI 1640 containing 5% charcoal stripped serum (CSS) in a 96-well plate, treated with 0.1 nM R1881 and compounds (0-25 μM) for 96 hrs.

YFP-V7 = biological target: T1, YFP-V7 (Homo sapiens, UniProt P10275); assay: Luciferase assay with YFP-V7 in PC3 cells; format: cell-based
T1 construct: expressed in transfected cells; host or cells: PC3
T1 sequence (P10275 1-644 isoform P10275-3): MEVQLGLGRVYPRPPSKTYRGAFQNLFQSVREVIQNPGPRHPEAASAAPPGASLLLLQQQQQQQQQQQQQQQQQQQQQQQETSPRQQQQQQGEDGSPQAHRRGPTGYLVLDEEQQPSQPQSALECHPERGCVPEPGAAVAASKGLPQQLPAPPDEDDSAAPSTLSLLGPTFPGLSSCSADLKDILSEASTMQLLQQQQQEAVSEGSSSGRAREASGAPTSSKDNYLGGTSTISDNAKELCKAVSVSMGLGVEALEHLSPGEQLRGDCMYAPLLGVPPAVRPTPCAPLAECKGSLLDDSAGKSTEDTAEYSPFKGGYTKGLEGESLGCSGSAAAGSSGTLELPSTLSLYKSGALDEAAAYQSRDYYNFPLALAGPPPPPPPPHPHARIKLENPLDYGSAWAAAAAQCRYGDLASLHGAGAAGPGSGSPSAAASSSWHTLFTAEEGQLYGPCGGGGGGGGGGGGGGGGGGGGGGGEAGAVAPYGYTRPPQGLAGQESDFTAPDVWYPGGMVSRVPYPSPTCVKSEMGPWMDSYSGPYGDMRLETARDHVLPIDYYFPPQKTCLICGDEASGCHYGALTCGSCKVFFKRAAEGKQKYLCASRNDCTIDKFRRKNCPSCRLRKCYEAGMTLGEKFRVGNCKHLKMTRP
Excerpt: the underlined primer sections anneal to the specified template, although their 5′-extensions (italicized) are complementary to the corresponding primer sequence of the other PCR. Plasmid assembly is achieved by mixing the PCR products from each reaction (Klock, H. E. et al. (2008) Combining the polymerase incomplete primer extension method for cloning and mutagenesis with microscreening to accelerate structural genomics efforts. Proteins 71, 982-994), followed by transformation into chemically competent bacteria. A similar strategy was used to clone the AR-DBD+hinge into the Pan4 vector (avidity) expressing the N-terminal biotinylation sequence ([…] ) and C-terminal His tag. YFP-AR plasmid was a gift from Dr. Jan Trapman (van Royen, M. E. et al. (2012) Stepwise androgen receptor dimerization. J. Cell Sci. 125, 1970-1979) and is based on pEYFP-C1 (Clontech™). YFP-V7 was constructed by polymerase incomplete primer extension method using the following primers and templates: AR-V7 insert from pcDNA3. AR-V7 template

AR-DBD+hinge / ARE dsDNA = biological target: T2, AR-DBD+hinge / ARE dsDNA (Homo sapiens, UniProt P10275); assay: Biolayer interferometry analysis of dsDNA (ARE) association with biotinylated AR-DBD+hinge; format: binding; set-up: His tag (C); made in house; host or cells: E. coli BL21 co-transformed with biotin ligase vector (pBir-Acm); conditions: 50 μM compound
T2 sequence (P10275 558-689): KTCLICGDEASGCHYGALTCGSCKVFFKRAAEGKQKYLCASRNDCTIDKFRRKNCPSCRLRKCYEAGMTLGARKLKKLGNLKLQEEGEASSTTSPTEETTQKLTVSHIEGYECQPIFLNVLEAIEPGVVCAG
Description: The plasmid encoding the AR-DBD+hinge was transformed into BL21 (DE3). BL21 cells designated for expression of biotin-labeled AR-DBD+hinge were co-transformed with the Pan4 AR-DBD+hinge (ampicillin selection) and biotin ligase expression vectors (pBir-Acm, chloramphenicol selection). Single colonies were grown in 2 liters of LB media supplemented with 50 μg/ml ampicillin and 35 μg/ml chloramphenicol (where appropriate) to A600 nm=0.6 before induction with 0.1 mM isopropyl β-D-1-thiogalactopyranoside for 3 h at 37° C. Cultures expressing the AR-DBD with the biotinylation sequence were simultaneously supplemented with 0.150 mM biotin during the induction step. Cell pellets were resuspended in ˜20 ml of 50 mM Tris-HCl, pH 8.0, 300 mM NaCl, 5% glycerol (Buffer A) supplemented with 10 mM imidazole and incubated with 0.1 mg/ml chicken egg white lysozyme (Sigma™) and 0.1 mM PMSF protease inhibitor for 30 min on ice. Cell lysis was achieved by sonication, followed by centrifugation at 13,000×g for 30 min at 4° C. The supernatant was rotated with 2 ml of nickel-agarose beads (GE Healthcare™) for 1 h at 4° C. and then directly loaded onto a Poly-Prep 10-ml gravity chromatography column (Bio-Rad™). Washing was performed with 2×4 ml of Buffer A supplemented with 20 mM imidazole. Pure proteins were eluted in 500-μl fractions with 2 ml of Buffer A containing 250 mM imidazole.
Biolayer interferometry analysis on a ForteBio Octet Red™ instrument was carried out using biotinylated AR-DBD+hinge in Buffer A with 5% DMSO throughout all experiments. The DBD (0.1 mg/ml) was loaded onto streptavidin sensors in 200 μl of buffer for 30 min, followed by blocking of free streptavidin sites with biocytin (10 μg/ml) for 10 min. DBD-loaded sensors were then pre-equilibrated in 50 μM compound or 5% DMSO alone for 100 s in the same buffer. The kinetics of DNA association were monitored by moving sensors into wells containing dsDNA (ARE, 3 μM) supplemented with 50 μM compound for 120 s. This was followed by dissociation in buffer+compound, but lacking DNA, for an additional 120 s. Biocytin-blocked control sensors (no AR-DBD) were subjected to the same experimental conditions, and nonspecific interactions with dsDNA were subtracted from each curve.

AR v567es = assay: ARR3tk-luciferase assay in R1-D567 cells; format: cell-based, human
AR Q592A mutant = AR Q592A mutant (Homo sapiens, UniProt P10275, Q592A); assay: ARR3tk-luciferase reporter assay in PC3 cells, AR Q592A
Chain of AR Q592A mutant (P10275 whole entry Q592A): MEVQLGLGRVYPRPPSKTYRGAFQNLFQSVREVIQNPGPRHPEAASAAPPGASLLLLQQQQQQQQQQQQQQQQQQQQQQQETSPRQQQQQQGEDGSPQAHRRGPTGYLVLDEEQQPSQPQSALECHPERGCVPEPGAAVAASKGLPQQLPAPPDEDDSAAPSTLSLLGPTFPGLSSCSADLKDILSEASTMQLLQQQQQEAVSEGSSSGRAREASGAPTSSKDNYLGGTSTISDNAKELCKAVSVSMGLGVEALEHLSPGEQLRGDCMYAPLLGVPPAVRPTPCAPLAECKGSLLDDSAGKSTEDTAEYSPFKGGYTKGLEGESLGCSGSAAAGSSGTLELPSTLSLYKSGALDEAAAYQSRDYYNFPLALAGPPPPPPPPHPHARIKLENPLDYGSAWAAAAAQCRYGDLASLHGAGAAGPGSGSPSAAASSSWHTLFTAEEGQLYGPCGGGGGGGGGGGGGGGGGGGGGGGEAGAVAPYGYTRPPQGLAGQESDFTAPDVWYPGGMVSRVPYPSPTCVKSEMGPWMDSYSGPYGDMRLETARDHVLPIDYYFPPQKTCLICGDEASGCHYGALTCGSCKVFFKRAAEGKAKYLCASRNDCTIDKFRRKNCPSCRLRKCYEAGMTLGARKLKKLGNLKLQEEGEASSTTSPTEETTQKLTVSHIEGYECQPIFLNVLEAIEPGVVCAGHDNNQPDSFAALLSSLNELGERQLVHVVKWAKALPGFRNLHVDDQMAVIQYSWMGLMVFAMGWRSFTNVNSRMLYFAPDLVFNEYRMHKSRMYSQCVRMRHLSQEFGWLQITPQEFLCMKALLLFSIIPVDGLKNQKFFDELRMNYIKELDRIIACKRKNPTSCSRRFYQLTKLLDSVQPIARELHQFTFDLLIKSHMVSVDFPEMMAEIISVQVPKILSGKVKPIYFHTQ
Description: Cells were then treated with compounds at various concentrations and 0.1 nMR1881 (in 100% ethanol) for 24 h. […] Cell lysis was carried out with 60 μl of 1X passive lysis buffer/well (Promega™)
20 μl of cell lysate from each well were mixed with 50 μl of luciferase assay reagent (Promega™), and luminescence was recorded on a TECAN™ M200pro plate reader. Luciferase assays with splice variant AR were performed the same way but with only 5 ng of pcDNA3.1 AR-V7 (to limit the high level of AR-V7 expression) and no R1881.

Brc1ncn(-c2csc(N3CCOCC3)n2)c1Br [Compound 14449]
inhibition of cell growth, PC3 (AR-negative) (PC3 cells): ineffective
inhibition of YFP-V7 driven luciferase expression (YFP-V7): could be inhibited
dsDNA dissociation from AR-DBD (AR-DBD+hinge / ARE dsDNA): relatively unchanged
rate of dsDNA association with AR-DBD (AR-DBD+hinge / ARE dsDNA): significantly slower rate of dsDNA binding
inhibition of AR v567es transcriptional activity (AR v567es): could inhibit
IC50 (AR Q592A mutant): 3 to 6 µM

c1ccc(-c2csc(N3CCOCC3)n2)cc1 [Compound 14228, 4-(4-phenylthiazol-2-yl)morpholine]
inhibition of cell growth, PC3 (AR-negative) (PC3 cells): no effect
inhibition of YFP-V7 driven luciferase expression (YFP-V7): could be inhibited
dsDNA dissociation from AR-DBD (AR-DBD+hinge / ARE dsDNA): relatively unchanged
rate of dsDNA association with AR-DBD (AR-DBD+hinge / ARE dsDNA): significantly slower rate of dsDNA binding
inhibition of AR v567es transcriptional activity (AR v567es): could inhibit
IC50 (AR Q592A mutant): 3 to 6 µM
